How the values were obtained:
Format in all cases: in vivo
[1] = tested on: Euschistus heros (Neotropical Brown Stink Bug); experiment: Example B9: Activity against Euschistus heros, sprayed soybean leaf; details: 120 h, application rate 200 ppm, N2 nymphs on soybean leaf, 5 days after infestation, read-out: effect in at least one of the two categories (mortality or growth inhibition)
Description: Soybean leaf on agar in 24-well microtiter plates were sprayed with aqueous test solutions prepared from 10′000 ppm DMSO stock solutions. After drying the leaf were infested with N2 nymphs. The samples were assessed for mortality and growth inhibition in comparison to untreated samples 5 days after infestation.

[2] = tested on: Myzus persicae (Green Peach Aphid); experiment: Example B5: Activity against Myzus persicae, sprayed sunflower leaf discs; details: foliar, 144 h, application rate 200 ppm, mixed-age aphids on sunflower leaf discs, 6 days after infestation
Description: (§1) Sunflower leaf discs were placed on agar in a 24-well microtiter plate and sprayed with aqueous test solutions prepared from 10′000 ppm DMSO stock solutions. After drying, the leaf discs were infested with an aphid population of mixed ages. The samples were assessed for mortality 6 days after infestation.

[3] = tested on: Frankliniella occidentalis (Western Flower Thrips); experiment: Example B8: Activity against Frankliniella occidentalis, sprayed sunflower leaf discs; details: foliar, 168 h, application rate 200 ppm, mixed ages on sunflower leaf discs, 7 days after infestation
Description: as §1, with “in” for “in a”, “plates” for “plate”, “[…]” for “10′000 ppm”, “drying” for “drying,”, “a Frankliniella” for “an aphid”, “7” for “6”

[4] = tested on: Myzus persicae (Green Peach Aphid); experiment: Example B6: Activity against Myzus persicae, systemic via roots of pea seedlings; details: 144 h, test rate 24 ppm, pea seedling roots in test solution, 6 days
Description: Roots of pea seedlings infested with an aphid population of mixed ages were placed directly in the aqueous test solutions prepared from 10′000 DMSO stock solutions. The samples were assessed for mortality 6 days after placing seedlings in test solutions.

[5] = tested on: Diabrotica balteata (Corn Root Worm); experiment: Example B4: Activity against Diabrotica balteata, sprayed maize sprouts; details: 96 h, application rate 200 ppm, L2 larvae on maize sprouts, 4 days after infestation, read-out: effect in at least one of the two categories (mortality or growth inhibition)
Description: Maize sprouts placed onto an agar layer in 24-well microtiter plates were treated with aqueous test solutions prepared from 10′000 ppm DMSO stock solutions by spraying. After drying, the plates were infested with L2 larvae (6 to 10 per well). The samples were assessed for mortality and growth inhibition in comparison to untreated samples 4 days after infestation.

[6] = tested on: Spodoptera littoralis (Egyptian Cotton Leaf Worm); experiment: Example B1: Activity against Spodoptera littoralis, sprayed cotton leaf discs; details: foliar, 72 h, application rate 200 ppm, L1 larvae on cotton leaf discs, 3 days after infestation, read-out: control (at least one of mortality, anti-feedant effect, growth inhibition)
Description: Cotton leaf discs were placed onto agar in 24-well microtiter plates and sprayed with aqueous test solutions prepared from 10′000 ppm DMSO stock solutions. After drying the leaf discs were infested with five L1 larvae. The samples were assessed for mortality, anti-feeding effect, and growth inhibition in comparison to untreated samples 3 days after infestation. Control of Spodoptera littoralis by a test sample is given when at least one of the categories mortality, anti-feedant effect, and growth inhibition is higher than the untreated sample.

[7] = tested on: Plutella xylostella (Diamond Back Moth); experiment: Example B12: Activity against Plutella xylostella, artificial diet, eggs; details: 192 h, application rate 200 ppm, eggs on artificial diet, 8 days after infestation, read-out: effect in at least one of the two categories (mortality or growth inhibition)
Description: 24-well microtiter plates with artificial diet were treated with aqueous test solutions prepared from 10′000 ppm DMSO stock solutions by pipetting. After drying, Plutella eggs were pipetted through a plastic stencil onto a gel blotting paper and the plate was closed with it. The samples were assessed for mortality and growth inhibition in comparison to untreated samples 8 days after infestation.

Row | SMILES | percent effect (mortality or growth inhibition) at 200 ppm [1] | mortality at 200 ppm [2] | mortality at 200 ppm [3] | mortality at 24 ppm [4] | percent effect (mortality or growth inhibition) at 200 ppm [5] | percent control (mortality, anti-feedant effect or growth inhibition) at 200 ppm [6] | percent effect (mortality or growth inhibition) at 200 ppm [7]
1 | CCS(=O)(=O)c1cc2c(cc1-c1nc3cc(C(F)(F)F)ncc3n1C)n(C)c(=O)n2C [Compound P9, 5-ethylsulfonyl-1,3-dimethyl-6-[3-methyl-6-(trifluoromethyl)imidazo[4,5-c]pyridin-2-yl]benzimidazol-2-one] | ≥ 80% | ≥ 80% | ≥ 80% | ≥ 80% |  |  | 
2 | CCSc1cc2c(cc1-c1nc3cc(C(F)(F)F)ncc3n1C)n(C)c(=O)n2C [Compound P10, 5-ethylsulfanyl-1,3-dimethyl-6-[3-methyl-6-(trifluoromethyl)imidazo[4,5-c]pyridin-2-yl]benzimidazol-2-one] | ≥ 80% |  |  |  |  |  | 
3 | CCS(=O)(=O)c1cc2c(cc1-c1nc3cc(C(F)(F)F)nnc3n1C)n(C)c(=O)n2C [Compound P11, 5-ethylsulfonyl-1,3-dimethyl-6-[7-methyl-3-(trifluoromethyl)imidazo[4,5-c]pyridazin-6-yl]benzimidazol-2-one] | ≥ 80% | ≥ 80% |  | ≥ 80% |  |  | 
4 | CCS(=O)(=O)c1cc2c(cc1-c1nc3cc(C(F)(F)F)cnc3n1C)n(S(=O)(=O)C1CC1)c(=O)n2C [Compound P13, 1-cyclopropylsulfonyl-5-ethylsulfonyl-3-methyl-6-[3-methyl-6-(trifluoromethyl)imidazo[4,5-b]pyridin-2-yl]benzimidazol-2-one] |  | ≥ 80% |  | ≥ 80% |  |  | 
5 | CCS(=O)(=O)c1cc2c(cc1-c1nc3cc(C(F)(F)F)cnc3n1C)n(C#N)c(=O)n2C [Compound P14, 5-ethylsulfonyl-3-methyl-6-[3-methyl-6-(trifluoromethyl)imidazo[4,5-b]pyridin-2-yl]-2-oxo-benzimidazole-1-carbonitrile] | ≥ 80% | ≥ 80% | ≥ 80% | ≥ 80% |  |  | 
6 | CCS(=O)(=O)c1cc2c(cc1-c1nc3cc(C(F)(F)F)cnc3n1C)n(CSC)c(=O)n2C [Compound P17, 6-ethylsulfonyl-1-methyl-3-(methylsulfanylmethyl)-5-[3-methyl-6-(trifluoromethyl)imidazo[4,5-b]pyridine-2-yl]benzimidazol-2-one] | ≥ 80% | ≥ 80% |  | ≥ 80% |  |  | 
7 | CCS(=O)(=O)c1cc2c(cc1-c1nc3cc(C(F)(F)F)cnc3n1C)n(CC(F)(F)F)c(=O)n2C [Compound P19, 6-ethylsulfonyl-1-methyl-5-[3-methyl-6-(trifluoromethyl)imidazo[4,5-b]pyridine-2-yl]-3-(2,2,2-trifluoroethyl) benzimidazol-2-one] | ≥ 80% | ≥ 80% |  | ≥ 80% | ≥ 80% | ≥ 80% | 
8 | CCS(=O)(=O)c1cc2c(cc1-c1nc3cc(C(F)(F)F)cnc3n1C)n(C(=O)C1CC1)c(=O)n2C [Compound P20, 1-(cyclopropanecarbonyl)-5-ethylsulfonyl-3-methyl-6-[3-methyl-6-(trifluoromethyl)imidazo[4,5-b]pyridine-2-yl]benzimidazol-2-one] |  | ≥ 80% |  |  |  |  | 
9 | CCOC(=O)n1c(=O)n(C)c2cc(S(=O)(=O)CC)c(-c3nc4cc(C(F)(F)F)cnc4n3C)cc21 [Compound P23, ethyl 5-ethylsulfonyl-3-methyl-6-[3-methyl-6-(trifluoromethyl)imidazo[4,5-b]pyridine-2-yl]-2-oxo-benzimidazole-1-carboxylate] |  | ≥ 80% |  | ≥ 80% | ≥ 80% |  | 
10 | CCSc1cc2c(nc1-c1nc3cc(C(F)(F)F)cnc3n1C)n(C)c(=O)n2C [Compound P24, 6-ethylsulfanyl-1,3-dimethyl-5-[3-methyl-6-(trifluoromethyl)imidazo[4,5-b]pyridine-2-yl]imidazo[4,5-b]pyridine-2-one] |  |  |  |  | ≥ 80% |  | 
11 | CCS(=O)(=O)c1cc2c(cc1-c1nc3cc(S(=O)(=O)C(F)(F)F)ccc3o1)n(C)c(=O)n2C [Compound P25, 5-ethylsulfonyl-1,3-dimethyl-6-[5-(trifluoromethylsulfonyl)-1,3-benzoxazol-2-yl]benzimidazol-2-one] | ≥ 80% |  |  |  | ≥ 80% | ≥ 80% | ≥ 80%
12 | CCS(=O)(=O)c1cc2c(nc1-c1nc3cc(S(=O)(=O)C(F)(F)F)ccc3o1)n(C)c(=O)n2C [Compound P26, 6-ethylsulfonyl-1,3-dimethyl-5-[5-(trifluoromethylsulfonyl)-1,3-benzoxazol-2-yl]imidazo[4,5-b]pyridine-2-one] |  |  |  |  | ≥ 80% | ≥ 80% | ≥ 80%
13 | CCS(=O)(=O)c1cc2c(cc1-c1nc3cc(SC(F)(F)F)ccc3o1)n(C)c(=O)n2C [Compound P29, 5-ethylsulfonyl-1,3-dimethyl-6-[5-(trifluoromethylsulfanyl)-1,3-benzoxazol-2-yl]benzimidazol-2-one] | ≥ 80% |  |  |  | ≥ 80% | ≥ 80% | ≥ 80%
14 | CCS(=O)(=O)c1cc2c(nc1-c1nc3cc(SC(F)(F)F)ccc3o1)n(C)c(=O)n2C [Compound P35, 6-ethylsulfonyl-1,3-dimethyl-5-[5-(trifluoromethylsulfanyl)-1,3-benzoxazol-2-yl]imidazo[4,5-b]pyridin-2-one] |  |  |  |  | ≥ 80% | ≥ 80% | ≥ 80%
15 | CCS(=O)(=O)c1cc2c(cc1-c1nc3cc(S(=O)(=O)C(F)(F)F)ccc3n1C)n(C)c(=O)n2C [Compound P37, 5-ethylsulfonyl-1,3-dimethyl-6-[1-methyl-5-(trifluoromethyl-sulfonyl)benzimidazol-2-yl]benzimidazol-2-one] | ≥ 80% | ≥ 80% |  |  |  |  | ≥ 80%
16 | CCS(=O)(=O)c1cc2c(cc1-c1nc3cc(C(F)(F)F)ccc3o1)n(C)c(=O)n2C [Compound P40, 5-ethylsulfonyl-1,3-dimethyl-6-[5-(trifluoromethyl)-1,3-benzoxazol-2-yl]benzimidazol-2-one] |  |  |  |  |  |  | ≥ 80%
17 | CCSc1cc2c(cc1-c1nc3cc(SC(F)(F)F)ccc3n1C)n(C)c(=O)n2C [Compound P42, 5-ethylsulfanyl-1,3-dimethyl-6-[1-methyl-5-(trifluoromethyl-sulfanyl)benzimidazol-2-yl]benzimidazol-2-one] | ≥ 80% |  |  |  |  |  | ≥ 80%
18 | CCS(=O)(=O)c1cc2c(nc1-c1nc3cc([S+]([O-])C(F)(F)F)ccc3n1C)n(C)c(=O)n2C (stereo not shown) [Compound P43, 6-ethylsulfonyl-1,3-dimethyl-5-[1-methyl-5-(trifluoromethyl-sulfinyl)benzimidazol-2-yl]imidazo[4,5-b]pyridin-2-one] | ≥ 80% | ≥ 80% |  | ≥ 80% |  |  | ≥ 80%
19 | CCS(=O)(=O)c1cc2c(cc1-c1nc3cc([S+]([O-])C(F)(F)F)ccc3n1C)n(C)c(=O)n2C (stereo not shown) [Compound P44, 5-ethylsulfonyl-1,3-dimethyl-6-[1-methyl-5-(trifluoromethyl-sulfinyl)benzimidazol-2-yl]benzimidazol-2-one] | ≥ 80% | ≥ 80% |  | ≥ 80% |  |  | ≥ 80%

From patent publication US11399542B2, “Pesticidally active heterocyclic derivatives with sulfur containing substituents” (SYNGENTA PARTICIPATIONS AG, priority 2017, dated 2022)
